Columns and labels:
[1] = system: histamine-induced skin vascular permeability; assay: Inhibitory effect on histamine-induced vascular permeability in mice; format: in vivo, ICR mice; conditions: Mus musculus, po; 5 mg/kg intragastric 1 hour before modeling; histamine phosphate 1 ug/0.1 mL; Evans Blue absorbance at 610 nm; read-out: Inhibition rate (%)
Method: Intragastric administration was performed 1 hour before modeling. The model group was given the corresponding solvent. […] 10% sodium sulfide was used to depilate the back of mice (3 cm×3 cm). The mice were injected 1 ug/0.1 mL of histamine phosphate physiological saline solution into the depilation site one hour after the administration, and injected 0.25% Evans Blue solution 4 ml/kg from the tail vein immediately after the injection. After 30 minutes, the mice were dislocated and sacrificed. The blue-stained part of the skin was removed and perforated (diameter 15 mm), cut into pieces and soaked in 1 ml of acetone-saline (7:3) solution. After 24 h, it was centrifuged (3000 r/min, 10 min) to take the supernatant. The absorbance of the sample was measured with an ultraviolet spectrophotometer at a wavelength of 610 nm and a blank zero calibration with acetone-physiological saline solution.

[2] = system: pilocarpine-induced saliva secretion; assay: Pilocarpine-induced salivation in rats; conditions: 10 mg/kg intragastric; pilocarpine 1 mg/kg i.p. 15 minutes later; saliva collected 10 minutes
Method: Rats in each group were given corresponding drugs by intragastric administration. 15 minutes later, pilocarpine (1 mg/kg, dissolved in physiological saline) was injected intraperitoneally to induce saliva secretion. The rat was immediately anesthetized by intraperitoneal injection of 10% chloral hydrate. After the rat was anesthetized, the residual saliva in the oral cavity was taken out with a cotton ball in that the weighed cotton ball (M1) was placed in the oral cavity (two under the tongue and one for each on both sides). The cotton ball was taken out 10 minutes later and the weight of the cotton ball (M2) was immediately measured.
Inhibition rate=Saliva secretion in drug administration group/Saliva secretion in model group×100%

Inhibition rate (%) [2]	SMILES	inhibition in vivo at 5 mg/kg [1]
7.64%	CC(C)(C(=O)O)c1ccc(CCN2CCC(=C3c4ccc(Cl)cc4CCc4cccnc43)CC2)cc1 [Example 2, 2-(4-(2-(4-(4-(8-chloro-5,6-dihydro-11H-benzo[5,6]]cyclohept[1,2-b]pyridine-11-enyl)piperidin-1-yl)ethyl)phenyl)-2-methylpropionic acid]	54%
11.60%	COc1cc(C(C)(C)C(=O)O)ccc1CCCN1CCC(=C2c3ccc(Cl)cc3CCc3cccnc32)CC1 [Example 5, 2-(4-(3-(4-(8-chloro-5,6-dihydro-11H-benzo[5,6]cyclohepta[1,2-b]pyridine-11-enyl)piperidine-1-yl)propyl)-3-methoxyphenyl)-2-methylpropionic acid]	47.9%
6.34%	CC(C)(C(=O)O)c1ccc(CCCN2CCC(=C3c4ccc(Cl)cc4CCc4cccnc43)CC2)c(N)c1 [Example 6, 2-(3-Amino-4-(3-(4-(8-chloro-5,6-dihydro-11H-benzo[5,6]cyclohept[1,2-b]pyridine-11-enyl)piperidin-1-yl)propyl)phenyl)-2-methylpropionic acid]	53.2%
12.01%	CC(C)(C(=O)O)c1ccc(CCCN2CCC(=C3c4ccc(Cl)cc4CCc4cccnc43)CC2)cc1F [Example 9, 2-(4-(3-(4-(8-chloro-5,6-dihydro-11H-benzo[5,6]cyclohepta[1,2-b]pyridine-11-enyl)piperidine-1-yl)propyl)-2-fluorophenyl)-2-methylpropionic acid]	50.6%
5.13%	Cc1cc(C(C)(C)C(=O)O)ccc1CCCN1CCC(=C2c3ccc(Cl)cc3CCc3cccnc32)CC1 [Example 10, 2-(4-(3-(4-(8-chloro-5,6-dihydro-11H-benzo[5,6]cyclohepta[1,2-b]pyridine-11-enyl)piperidine-1-yl)propyl)-3-methylphenyl)-2-methylpropionic acid]	41.2%
7.48%	CC(C)(C(=O)O)c1ccc(CCCN2CCC(=C3c4ccc(Cl)cc4CCc4cccnc43)CC2)c(C(F)(F)F)c1 [Example 12]	44.6%
5.77%	CC(C)(C(=O)O)c1ccc(CCCN2CCC(=C3c4ccc(Cl)cc4CCc4cccnc43)CC2)cc1C(F)(F)F [Example 13]	51%
3.78%	CC(C)(C(=O)O)c1ccc(CCCN2CCC(=C3c4ccc(Cl)cc4CCc4cccnc43)CC2)c(Br)c1 [Example 14, 2-(3-Bromo-4-(3-(4-(8-chloro-5,6-dihydro-11H-benzo[5,6]cyclohept[1,2-b]pyridine-11-enyl)piperidin-1-yl)propyl)phenyl)-2-methylpropionic acid]	42.8%
8.42%	CC(C)(C(=O)O)c1ccc(CCCN2CCC(=C3c4ccc(Cl)cc4CCc4cccnc43)CC2)c(Cl)c1 [Example 15, 2-(3-chloro-4-(3-(4-(8-chloro-5,6-dihydro-11H-benzo[5,6]cyclohept[1,2-b]pyridine-11-enyl)piperidin-1-yl)propyl)phenyl)-2-methylpropionic acid]	52.8%
10.76%	CC(C)(C(=O)O)c1ccc(CCCN2CCC(=C3c4ccc(Cl)cc4CCc4cccnc43)CC2)c([N+](=O)[O-])c1 [Example 16, 2-(4-(3-(4-(8-chloro-5,6-dihydro-11H-benzo[5,6]cyclohepta[1,2-b]pyridine-11-enyl)piperidine-1-yl)propyl)-2-nitrophenyl)-2-methylpropionic acid]	50.8%
6.54%	CC(C)(C(=O)O)c1ccc(CCCN2CCC(=C3c4ccc(Cl)cc4CCc4cccnc43)CC2)cc1[N+](=O)[O-] [Example 17, 2-(4-(3-(4-(8-chloro-5,6-dihydro-11H-benzo[5,6]cyclohepta[1,2-b]pyridine-11-enyl)piperidine-1-yl)propyl)-3-nitrophenyl)-2-methylpropionic acid]	49.2%
12.50%	CC(C)(C(=O)O)c1ccc(CCCN2CCC(=C3c4ccc(Cl)cc4CC(O)c4cccnc43)CC2)cc1 (stereo not drawn) [Example 18]	46.6%
11.83%	CC(C)(C(=O)O)c1ccc(CCCN2CCC(=C3c4ccc(Cl)cc4C(O)Cc4cccnc43)CC2)cc1 (stereo not drawn) [Example 19]	53.3%
7.65%	CC(C)(C(=O)O)c1ccc(CCCN2CCC(=C3c4ccc(Cl)cc4CCc4cc(O)cnc43)CC2)cc1 [Example 20]	58%
18.43%	CC(C)(C(=O)O)c1ccc(CCCN2CCC(=C3c4ccccc4CC(=O)c4sccc43)CC2)cc1 [Example 22, 2-Methyl-2-(4-(3-(4-(10-oxo-9,10-dihydro-4H-benzo[4,5]cyclohepta[1,2-b]thiophene-4-alkylene)piperidin 1-yl)propyl)phenyl) propionic acid]	63.3%
8.54%	CC(C)(C(=O)O)c1ccc(CCCN2CCC(=C3c4ccccc4CC(O)c4sccc43)CC2)cc1 (stereo not drawn) [Example 23, 2-(4-(3-(4-(10-hydroxy-9,10-dihydro-4H-benzo[4,5]cyclohept[1,2-b]thiophen-4-alkylene)piperidin-1-yl)propyl)phenyl)-2-methylpropionic acid]	66.7%
10.32%	CC(C)(C(=O)O)c1ccc(CCCCN2CCC(=C3c4ccc(Cl)cc4CCc4cccnc43)CC2)cc1 [Example 24]	47.6%
9.68%	CC(C)(C(=O)O)c1cccc(CCCN2CCC(=C3c4ccc(Cl)cc4CCc4cccnc43)CC2)c1 [Example 25, 2-(3-(3-(4-(8-chloro-5,6-dihydro-11H-benzo [5,6]cyclohepta [1,2-b]pyridine-11-enyl)piperidine-1-yl)propyl)phenyl)-2-methylpropionic acid]	66.8%
5.48%	CC(C)(C(=O)O)c1cccc(CCCN2CCC(=C3c4ccccc4CC(O)c4sccc43)CC2)c1 (stereo not drawn) [Example 27, 2-(3-(3-(4-(10-hydroxy-9,10-dihydro-4H-benzo[4,5]cyclohepta[1,2-b]thiophene-4-alkylene)piperidin-1-yl)propyl)phenyl)-2-methylpropionic acid]	48.8%
19.65%	CC(C)(C(=O)O)c1ccccc1CCCN1CCC(=C2c3ccc(Cl)cc3CCc3cccnc32)CC1 [Example 28, 2-(2-(3-(4-(8-chloro-5,6-dihydro-11H-benzo[5,6]cyclohepta[1,2-b]pyridine-11-enyl)piperidine-1-yl)propyl)phenyl)-2-methylpropionic acid]	43.8%
6.74%	CC(C)(C(=O)O)c1cccc(C(O)CCCN2CCC(=C3c4ccc(Cl)cc4CCc4cccnc43)CC2)c1 (stereo not drawn) [Example 30, 2-(3-(4-(4-(8-chloro-5,6-dihydro-11H-benzo[5,6]cyclohepta[1,2-b]pyridine-11-enyl)piperidine-1-yl)-1-hydroxybutyl)phenyl)-2-methylpropionic acid]	52.2%
